# According to article PMC11040352, “CD38‐Specific Gallium‐68 Labeled Peptide Radiotracer Enables Pharmacodynamic Monitoring in Multiple Myeloma with PET” (Advanced Science, 2024):
# Where two headings read alike, the source gives them in different places.
# Assay: Ex vivo biodistribution in mice with MM1S tumor xenografts
# Conditions: NSG, mouse; for tissue uptake at 0.5 h: 30 min p.i.; for tissue uptake at 1 h / tissue to tissue ratio at 1 h: 60 min p.i.; for tissue uptake at 1.5 h: 90 min p.i.; for tissue uptake at 2 h: 120 min p.i.; for tissue uptake at 5 min: 5 min p.i.
# Protocol: Animal studies were performed under Johns Hopkins University Animal Care and Use Committee (ACUC‐approved protocol (Principal investigator: Sridhar Nimmagadda, Ph.D. and Protocol number M021M175). Male and female NSG mice (5‐6 weeks old) were used to establish xenografts by administering 3 million cells (50% Corning Matrigel) subcutaneously to form various tumor models within 3–4 weeks. Imaging or biodistribution studies (n = 3–5) were conducted on mice with tumor volumes of 100–200 mm^3. Disseminated tumor models were developed by injecting 4–5 million cells in saline intravenously for MOLP8 and MM1S‐Luc models (n = 4–5). Luciferase expressing MM1S cell line (MM1S‐Luc) was used to monitor cancer cell dissemination in the body. Tumor establishment was confirmed by injecting D‐Luciferin intraperitoneally (150 mg kg^−1) and imaged mice after 10 min in IVIS bioluminescence imaging system. Bone marrow tumors were ready for imaging after 25–30 d of implantation.
# Mice with 100–200 mm^3 tumor volume were used for ex vivo biodistribution studies. For radiotracer pharmacokinetics studies, mice with MOLP8 tumor xenografts received ≈80 µCi (2.96 MBq) [^68Ga]Ga‐AJ206 and were sacrificed at pre‐determined time points (5, 30, 60 and 120 min). Similarly, for dosimetry study, mice with MM1S tumor xenografts received ≈80 µCi (2.96 MBq) of [^68Ga]Ga‐AJ206 and were sacrificed at pre‐determined time points (5, 30, 60, 90 and 120 min). All other mice were injected with ≈50µCi (1.85 MBq) [^68Ga]Ga‐AJ206 and were sacrificed at 60 min. The selected tissues were collected, weighed, counted, and their %ID g^−1 values calculated for biodistribution analysis. The tissues included blood, muscle, tumor, thymus, heart, lung, liver, pancreas, stomach, small intestine, large intestine, spleen, adrenals, kidney, bladder, femur, and brain.
# [1] = both sexes, liver, 80 µCi, total radioactivity, MM1S xenograft mice, read-out: uptake in liver
# [2] = both sexes, lung, 80 µCi, total radioactivity, MM1S xenograft mice, read-out: uptake in lung
# [3] = both sexes, muscle, 80 µCi, MM1S xenograft mice, read-out: uptake in muscle
# [4] = both sexes, pancreas, 80 µCi, total radioactivity, MM1S xenograft mice, read-out: uptake in pancreas
# [5] = both sexes, small intestine (with contents), 80 µCi, MM1S xenograft mice, read-out: uptake in small intestine (with contents)
# [6] = both sexes, spleen, 80 µCi, total radioactivity, MM1S xenograft mice, read-out: uptake in spleen
# [7] = both sexes, stomach (with contents), 80 µCi, MM1S xenograft mice, read-out: uptake in stomach (with contents)
# [8] = both sexes, thymus, 80 µCi, total radioactivity, MM1S xenograft mice, read-out: uptake in thymus
# [9] = both sexes, tumor, 80 µCi, total radioactivity, MM1S xenograft mice, read-out: uptake in tumor
# [10] = female, ovary, 80 µCi, MM1S xenograft mice, read-out: uptake in ovary
compound,measurement,setting,value
"CC[C@H](C)[C@@H]1NC(=O)[C@@H]2CCCN2C(=O)[C@H](Cc2ccccc2)NC(=O)[C@H](CC(=O)O)NC(=O)[C@H](C)NC(=O)[C@@H]2CSCc3cc(cc(c3)CSC[C@H](NC(=O)[C@H](C)NC(=O)CCOCCOCCOCCNC(=O)CN3CCN(CC(=O)O)CCN(CC(=O)O)CC3)C(=O)N[C@@H](C(C)C)C(=O)N3CCC[C@H]3C(=O)N2)CSC[C@@H](C(N)=O)NC(=O)[C@H](Cc2ccc(O)cc2)NC(=O)[C@H](Cc2c[nH]c3ccccc23)NC1=O [[^68Ga]Ga‐AJ206, metal not drawn]",tissue uptake at 0.5 h,[1],3.64 ± 0.31 %ID/g
same,tissue uptake at 1 h,[1],1.38 ± 0.04 %ID/g
same,tissue uptake at 1.5 h,[1],1.16 ± 0.08 %ID/g
same,tissue uptake at 2 h,[1],0.73 ± 0.1 %ID/g
same,tissue uptake at 1 h,"both sexes, lung, 2 mg/kg, MM1S xenograft mice with blocking dose (2 mg kg^−1 AJ206), read-out: uptake in lung",0.94 ± 0.09 %ID/g
same,tissue uptake at 5 min,[2],10.2 ± 4.52 %ID/g
same,tissue uptake at 0.5 h,[2],3.43 ± 0.5 %ID/g
same,tissue uptake at 1 h,[2],0.67 ± 0.07 %ID/g
same,tissue uptake at 1.5 h,[2],0.95 ± 0.18 %ID/g
same,tissue uptake at 2 h,[2],0.4 ± 0.04 %ID/g
same,tissue uptake at 1 h,"both sexes, muscle, 2 mg/kg, MM1S xenograft mice with blocking dose (2 mg kg^−1 AJ206), read-out: uptake in muscle",0.21 ± 0.07 %ID/g
same,tissue uptake at 5 min,[3],1.96 ± 0.28 %ID/g
same,tissue uptake at 0.5 h,[3],0.55 ± 0.09 %ID/g
same,tissue uptake at 1 h,[3],0.13 ± 0.02 %ID/g
same,tissue uptake at 1.5 h,[3],0.18 ± 0.04 %ID/g
same,tissue uptake at 2 h,"both sexes, muscle, 80 µCi, total radioactivity, MM1S xenograft mice, read-out: uptake in muscle",0.09 ± 0.02 %ID/g
same,tissue uptake at 1 h,"both sexes, pancreas, 2 mg/kg, MM1S xenograft mice with blocking dose (2 mg kg^−1 AJ206), read-out: uptake in pancreas",0.64 ± 0.39 %ID/g
same,tissue uptake at 5 min,[4],3.55 ± 0.34 %ID/g
same,tissue uptake at 0.5 h,[4],0.79 ± 0.14 %ID/g
same,tissue uptake at 1 h,[4],0.19 ± 0.03 %ID/g
same,tissue uptake at 1.5 h,[4],0.26 ± 0.06 %ID/g
same,tissue uptake at 2 h,[4],0.17 ± 0.05 %ID/g
same,tissue uptake at 5 min,[5],5 ± 0.7 %ID/g
same,tissue uptake at 0.5 h,[5],0.95 ± 0.1 %ID/g
same,tissue uptake at 1 h,[5],0.2 ± 0.1 %ID/g
same,tissue uptake at 1.5 h,[5],0.41 ± 0.08 %ID/g
same,tissue uptake at 2 h,[5],0.52 ± 0.21 %ID/g
same,tissue uptake at 1 h,"both sexes, small intestine, 2 mg/kg, MM1S xenograft mice with blocking dose (2 mg kg^−1 AJ206), read-out: uptake in small intestine",0.87 ± 0.5 %ID/g
same,tissue uptake at 1 h,"both sexes, spleen, 2 mg/kg, MM1S xenograft mice with blocking dose (2 mg kg^−1 AJ206), read-out: uptake in spleen",0.9 ± 0.45 %ID/g
same,tissue uptake at 5 min,[6],6.41 ± 1.3 %ID/g
same,tissue uptake at 0.5 h,[6],1.21 ± 0.15 %ID/g
same,tissue uptake at 1 h,[6],0.41 ± 0.05 %ID/g
same,tissue uptake at 1.5 h,[6],0.43 ± 0.07 %ID/g
same,tissue uptake at 2 h,[6],0.28 ± 0.05 %ID/g
same,tissue uptake at 5 min,[7],1.65 ± 0.19 %ID/g
same,tissue uptake at 0.5 h,[7],0.54 ± 0.19 %ID/g
same,tissue uptake at 1 h,[7],0.32 ± 0.21 %ID/g
same,tissue uptake at 1.5 h,[7],0.82 ± 0.36 %ID/g
same,tissue uptake at 2 h,[7],0.47 ± 0.3 %ID/g
same,tissue uptake at 1 h,"both sexes, stomach, 2 mg/kg, MM1S xenograft mice with blocking dose (2 mg kg^−1 AJ206), read-out: uptake in stomach",1.01 ± 0.56 %ID/g
same,tissue uptake at 5 min,[8],16.5 ± 5.34 %ID/g
same,tissue uptake at 0.5 h,[8],2.67 ± 0.83 %ID/g
same,tissue uptake at 1 h,[8],0.69 ± 0.19 %ID/g
same,tissue uptake at 1.5 h,[8],0.84 ± 0.18 %ID/g
same,tissue uptake at 2 h,[8],0.33 ± 0.1 %ID/g
same,tissue uptake at 1 h,"both sexes, tumor, 2 mg/kg, MM1S xenograft mice with blocking dose (2 mg kg^−1 AJ206), read-out: uptake in tumor",1.37 ± 0.22 %ID/g
same,tissue uptake at 5 min,[9],3.09 ± 0.16 %ID/g
same,tissue uptake at 0.5 h,[9],4.15 ± 0.53 %ID/g
same,tissue uptake at 1.5 h,[9],1.6 ± 0.46 %ID/g
same,tissue uptake at 2 h,[9],1.3 ± 0.4 %ID/g
same,tissue uptake at 1 h,"both sexes, tumor, MM1S xenograft mice, read-out: uptake in tumor",2.48 ± 0.17 %ID/g
same,tissue to tissue ratio at 1 h,"both sexes, tumor/blood, total radioactivity, MM1S xenograft mice with blocking dose (2 mg kg^−1 AJ206), read-out: Tumor/Blood ratio",1.08 ± 0.4
same,tissue to tissue ratio at 1 h,"both sexes, tumor/blood, total radioactivity, MM1S xenograft mice, read-out: Tumor/Blood ratio",2.9 ± 0.65
same,tissue to tissue ratio at 1 h,"both sexes, tumor/muscle, total radioactivity, MM1S xenograft mice with blocking dose (2 mg kg^−1 AJ206), read-out: Tumor/Muscle ratio",8.31 ± 2.41
same,tissue to tissue ratio at 1 h,"both sexes, tumor/muscle, total radioactivity, MM1S xenograft mice, read-out: Tumor/Muscle ratio",21.2 ± 3.4
same,tissue uptake at 5 min,[10],4.11 ± 1.4 %ID/g
same,tissue uptake at 0.5 h,[10],1.48 ± 0.32 %ID/g
same,tissue uptake at 1 h,[10],0.2 ± 0.06 %ID/g
same,tissue uptake at 1.5 h,[10],0.32 ± 0.14 %ID/g
same,tissue uptake at 2 h,[10],0.45 ± 0.15 %ID/g
